According to ChEMBL document CHEMBL1128999, “Synthesis and evaluation of 2-aryl-4H-3,1-benzoxazin-4-ones as C1r serine protease inhibitors” (Bioorg Med Chem Lett, 1996):

How the values were obtained:
[1] = biological target: T1, Complement C1r subcomponent (Homo sapiens, UniProt P00736); experiment: Inhibition of C1r serine protease
T1 sequence (P00736 whole entry): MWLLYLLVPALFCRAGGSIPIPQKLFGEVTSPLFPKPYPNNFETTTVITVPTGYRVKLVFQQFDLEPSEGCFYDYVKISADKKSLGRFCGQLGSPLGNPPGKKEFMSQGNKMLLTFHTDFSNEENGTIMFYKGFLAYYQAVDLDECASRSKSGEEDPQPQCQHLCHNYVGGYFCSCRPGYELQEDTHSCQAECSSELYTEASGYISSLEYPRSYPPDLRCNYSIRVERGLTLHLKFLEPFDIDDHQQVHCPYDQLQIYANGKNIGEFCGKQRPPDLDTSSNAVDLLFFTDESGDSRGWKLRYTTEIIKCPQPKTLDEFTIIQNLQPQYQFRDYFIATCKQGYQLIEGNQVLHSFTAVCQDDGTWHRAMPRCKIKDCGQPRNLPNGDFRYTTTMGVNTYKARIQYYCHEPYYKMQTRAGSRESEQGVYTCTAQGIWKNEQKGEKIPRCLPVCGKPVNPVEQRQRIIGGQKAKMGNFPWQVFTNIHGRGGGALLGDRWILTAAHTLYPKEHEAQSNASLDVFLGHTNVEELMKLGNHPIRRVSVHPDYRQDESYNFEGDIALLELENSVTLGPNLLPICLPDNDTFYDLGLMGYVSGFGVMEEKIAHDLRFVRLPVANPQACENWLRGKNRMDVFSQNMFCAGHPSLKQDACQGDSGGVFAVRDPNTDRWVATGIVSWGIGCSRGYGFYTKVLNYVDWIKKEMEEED

[2] = biological target: T1, Complement C1r subcomponent; experiment: (§1) Inhibitory activity against C1r serine protease
[3] = biological target: T1, Complement C1r subcomponent; experiment: as §1; remark: listed apart in the source
[4] = biological target: T2, Complement C1r subcomponent (Homo sapiens) (UniProt P00736); experiment: Compound was evaluated for percentage inhibitory activity against C1r serine protease in assay 1 at a concentration of 10 uM
T2 sequence (whole entry): T1 sequence (P00736 whole entry)

Prothrombin = Prothrombin (Homo sapiens, UniProt P00734); experiment: Compound was evaluated for inhibitory activity against Thrombin.
Kallikrein-1 = Kallikrein-1 (Homo sapiens, UniProt P06870); experiment: Compound was evaluated for inhibitory activity against Kallikrein.
[5] = biological target: T1, Complement C1r subcomponent; experiment: Compound was evaluated for inhibitory activity against C1r serine protease in assay 2 at t=60 min.
Serine protease 1 = Serine protease 1 (Homo sapiens, UniProt P07477); experiment: Compound was evaluated for inhibitory activity against Trypsin.
[6] = biological target: T1, Complement C1r subcomponent; experiment: Compound was evaluated for inhibitory activity against C1r serine protease.
[7] = biological target: T1, Complement C1r subcomponent; experiment: Compound was evaluated for inhibitory activity against C1r serine protease in assay 1
Plasminogen = Plasminogen (Homo sapiens, UniProt P00747); experiment: Compound was evaluated for inhibitory activity against plasmin.
[8] = biological target: T3, Complement C1s subcomponent (Homo sapiens, UniProt P09871); experiment: Compound was evaluated for inhibitory activity against C1s serine protease.
T3 sequence (P09871 whole entry): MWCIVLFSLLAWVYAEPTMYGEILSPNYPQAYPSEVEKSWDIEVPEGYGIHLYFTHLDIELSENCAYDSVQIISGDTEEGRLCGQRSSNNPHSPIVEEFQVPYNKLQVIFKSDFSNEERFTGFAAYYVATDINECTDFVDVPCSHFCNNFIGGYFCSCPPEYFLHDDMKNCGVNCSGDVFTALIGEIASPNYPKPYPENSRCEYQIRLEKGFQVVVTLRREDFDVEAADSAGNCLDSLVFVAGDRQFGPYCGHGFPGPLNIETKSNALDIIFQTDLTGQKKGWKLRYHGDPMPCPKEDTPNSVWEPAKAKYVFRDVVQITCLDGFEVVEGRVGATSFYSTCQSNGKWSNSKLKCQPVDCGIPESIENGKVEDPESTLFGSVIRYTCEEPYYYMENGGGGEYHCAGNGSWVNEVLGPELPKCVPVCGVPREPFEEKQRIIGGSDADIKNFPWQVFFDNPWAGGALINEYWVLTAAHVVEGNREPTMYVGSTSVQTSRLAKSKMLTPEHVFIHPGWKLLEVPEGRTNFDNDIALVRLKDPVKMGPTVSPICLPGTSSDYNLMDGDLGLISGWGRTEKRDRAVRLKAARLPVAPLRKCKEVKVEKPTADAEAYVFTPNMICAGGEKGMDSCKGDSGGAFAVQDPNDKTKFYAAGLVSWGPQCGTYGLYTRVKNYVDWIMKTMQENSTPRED

[9] = biological target: T2, Complement C1r subcomponent (Homo sapiens); details: at 10 µM

Sequence of Kallikrein-1 (P06870 whole entry): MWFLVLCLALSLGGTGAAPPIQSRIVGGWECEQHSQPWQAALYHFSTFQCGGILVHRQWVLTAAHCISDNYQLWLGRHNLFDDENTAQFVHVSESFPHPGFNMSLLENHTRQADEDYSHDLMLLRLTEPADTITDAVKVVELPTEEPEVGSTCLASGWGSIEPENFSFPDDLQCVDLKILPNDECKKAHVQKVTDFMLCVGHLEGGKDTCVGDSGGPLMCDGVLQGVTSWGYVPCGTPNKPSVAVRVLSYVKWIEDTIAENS
Sequence of Serine protease 1 (P07477 whole entry): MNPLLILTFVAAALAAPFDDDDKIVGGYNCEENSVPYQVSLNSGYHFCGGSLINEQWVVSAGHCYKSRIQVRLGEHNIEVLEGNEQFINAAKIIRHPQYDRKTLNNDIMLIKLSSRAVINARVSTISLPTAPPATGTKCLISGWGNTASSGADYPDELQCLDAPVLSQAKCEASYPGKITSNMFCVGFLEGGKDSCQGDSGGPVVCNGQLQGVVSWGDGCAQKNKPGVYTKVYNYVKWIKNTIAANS
Sequence of Plasminogen (P00747 97-580 limits assumed): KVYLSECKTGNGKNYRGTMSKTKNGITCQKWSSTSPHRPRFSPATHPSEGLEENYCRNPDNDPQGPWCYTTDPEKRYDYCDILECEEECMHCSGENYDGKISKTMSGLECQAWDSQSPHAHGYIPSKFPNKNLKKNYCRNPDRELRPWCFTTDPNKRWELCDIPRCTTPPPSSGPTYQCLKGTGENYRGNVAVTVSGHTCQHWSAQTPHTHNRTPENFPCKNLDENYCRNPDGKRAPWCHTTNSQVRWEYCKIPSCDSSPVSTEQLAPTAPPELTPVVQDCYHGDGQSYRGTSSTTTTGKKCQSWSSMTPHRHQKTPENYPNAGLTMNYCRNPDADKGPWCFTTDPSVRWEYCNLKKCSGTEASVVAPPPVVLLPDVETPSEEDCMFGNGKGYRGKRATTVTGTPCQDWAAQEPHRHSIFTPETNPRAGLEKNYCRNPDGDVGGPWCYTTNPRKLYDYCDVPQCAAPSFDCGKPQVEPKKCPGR
Sequence of Plasminogen (P00747 581-810 limits assumed): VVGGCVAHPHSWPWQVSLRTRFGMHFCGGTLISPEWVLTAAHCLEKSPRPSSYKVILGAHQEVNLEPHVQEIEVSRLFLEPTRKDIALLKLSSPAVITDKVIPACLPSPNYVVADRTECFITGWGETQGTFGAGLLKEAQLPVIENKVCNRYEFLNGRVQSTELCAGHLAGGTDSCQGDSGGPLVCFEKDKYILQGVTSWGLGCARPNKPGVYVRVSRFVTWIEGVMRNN

Row | Compound | IC50 [1] [µM] | IC50 [2] [µM] | IC50 [3] [µM] | also measured
1 | O=c1oc(-c2ccccc2I)nc2cccc(Cl)c12 | 3 | 57 | 13.5 | 
2 | COc1ccc2nc(-c3ccccc3I)oc(=O)c2c1 | 5 | > 62.5 | > 62.5 | 
3 | O=c1oc(-c2ccccc2I)nc2cc(Cl)c(Cl)cc12 | 1.7 | > 62.5 | > 62.5 | 
4 | O=c1oc(-c2ccccc2[N+](=O)[O-])nc2ccccc12 | 36.3 | > 62.5 | 15 | 
5 | O=C(O)c1ccccc1-c1nc2ccccc2c(=O)o1 |  | > 62.5 | > 62.5 | inhibition [9]: 25%
6 | O=c1oc(-c2ccccc2I)nc2cc([N+](=O)[O-])ccc12 |  | > 62.5 | 22 | inhibition [9]: 0%
7 | O=c1oc(Cc2ccccc2I)nc2ccccc12 | 6 | 40 | 26 | 
8 | COc1cc2nc(-c3ccccc3I)oc(=O)c2cc1OC |  | > 62.5 | > 62.5 | inhibition [4]: 18%

More lines, main results first:

Row | IC50 [1] [µM] | IC50 [2] [µM] | IC50 [3] [µM] | Compound | also measured
9 | 4.2 | > 62.5 | 35.4 | O=c1oc(-c2ccccc2C(F)(F)F)nc2ccccc12 | 
10 |  | > 62.5 | > 62.5 | COc1ccc2c(=O)oc(-c3ccccc3I)nc2c1 | inhibition [4]: 27%
11 | 3 | 27.3 | 7.8 | O=c1oc(-c2ccccc2I)nc2ccc(Cl)cc12 | 
12 |  |  | 16.7 | O=c1oc(-c2ccccc2I)nc2ccccc12 | IC50 (Prothrombin): 0.51 µM; IC50 (Kallikrein-1): 9.89 µM; IC50 [5]: 50 µM; IC50 (Serine protease 1): 15.3 µM; IC50 [6]: 1.37 µM; IC50 [7]: 1.4 µM; IC50 (Plasminogen): 6.68 µM; IC50 [8]: 1.25 µM
13 | 1 | 12 |  | N=C(N)c1ccc2cc(OC(=O)c3ccc(N=C(N)N)cc3)ccc2c1 [NAFAMOSTAT] | IC50 (Prothrombin): 0.29 µM; IC50 (Kallikrein-1): 0.65 µM; IC50 [6]: 1.04 µM; IC50 [8]: 0.14 µM
14 | 9.5 | 46 | 32 | O=c1oc(-c2ccccc2Br)nc2ccccc12 | 
15 | 0.7 | > 62.5 | > 62.5 | O=c1oc(-c2ccccc2I)nc2cc3ccccc3cc12 | 
